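Five compound concentrations were applied to cells in 96-well plates for 48 hours; endpoints were derived by simple linear interpolation of the resulting dose-response curve. TGI: total growth inhibition.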

From PubChem BioAssay (NCI) come the findings set out here.

Some test systems named below: A498 renal; BT-549 breast; DU-145 prostate; HOP-92 NSCLC; M14 melanoma; MDA-MB-435; MDA-N; NCI-H522 lung; PC-3 prostate; TK-10 renal.
Common to all, as to experiment: DTP human tumour cell line panel, 48 h

Broadly, the TGI is the concentration giving total growth inhibition. Lower therefore signals greater sensitivity of the cells. `COC(OC)C1OCC(n2cc(F)c(=O)[nH]c2=O)C1O` (stereo not given): the TGI in the assay on A498 renal, in the assay on BT-549 breast, with DU-145 prostate, in the assay with HOP-92 NSCLC, in the assay on M14 melanoma and with MDA-MB-435 was above 100 µM throughout. Besides, the TGI in the assay with MDA-N, in the assay on NCI-H522 lung, with PC-3 prostate and with TK-10 renal was above 100 µM each time.
Consider `Cc1cn(CCCCCCC2=NCCCN2)c(=O)[nH]c1=O`, for which the TGI in the assay on A498 renal, in the assay on BT-549 breast, in the assay with DU-145 prostate, in the assay with HOP-92 NSCLC, with M14 melanoma and in the assay on MDA-MB-435 was above 100 µM each time. In addition, the total growth inhibition concentration (TGI) in the assay on MDA-N, in the assay on NCI-H522 lung, in the assay on PC-3 prostate and in the assay with TK-10 renal was above 100 µM in each case.
As for `C/C(=C\c1ccccc1)C(=O)NCc1ccc(C(=O)NCCc2ccccc2)cc1`, the TGI in the assay on A498 renal is above 100 µM; with BT-549 breast, above 100 µM; in the assay on DU-145 prostate, above 100 µM; in the assay on HOP-92 NSCLC it was 99.1 µM; in the assay with M14 melanoma it was above 100 µM; with MDA-MB-435, above 100 µM. Further, the TGI with MDA-N, in the assay on NCI-H522 lung, in the assay with PC-3 prostate and in the assay with TK-10 renal was above 100 µM throughout.
For the compound `O=c1sc2c(s1)-c1sc(=O)sc1SS2`, the TGI with A498 renal is above 62.2 µM; in the assay with BT-549 breast, above 100 µM; with DU-145 prostate, above 89.8 µM; in the assay with HOP-92 NSCLC it was above 100 µM; in the assay on M14 melanoma, above 100 µM; with MDA-MB-435 it was above 100 µM. Moreover, the TGI was above 100 µM with MDA-N, above 100 µM in the assay on NCI-H522 lung, above 100 µM in the assay on PC-3 prostate and above 79.4 µM in the assay with TK-10 renal.
For the compound `COc1ccc(/C=C/C(=O)c2cc(C(C)(C)C)c(O)c(C(C)(C)C)c2)cc1OC`, the TGI in the assay on A498 renal was above 79.7 µM; in the assay with BT-549 breast, above 77.6 µM; with DU-145 prostate, above 70.3 µM; with HOP-92 NSCLC it was above 100 µM; in the assay with M14 melanoma it was above 100 µM; with MDA-MB-435, 21.2 µM. Moreover, the TGI with MDA-N was above 33.3 µM; in the assay on NCI-H522 lung, 72.1 µM; in the assay on PC-3 prostate it was above 46.4 µM; in the assay on TK-10 renal, 47.4 µM.
As to `CCCCCc1nnc(NS(=O)(=O)c2ccc(NC(=O)OCC(C)C)cc2)s1`, the TGI is 24.6 µM in the assay on A498 renal; above 100 µM in the assay on BT-549 breast; above 100 µM in the assay on DU-145 prostate; 77.3 µM with HOP-92 NSCLC; above 100 µM in the assay with M14 melanoma; above 100 µM with MDA-MB-435. The TGI was above 100 µM in the assay on MDA-N, 79 µM with NCI-H522 lung, above 100 µM in the assay with PC-3 prostate and above 100 µM in the assay with TK-10 renal.
For the compound `CSc1cc(-c2ccccn2)nc(-c2ccccn2)c1`, the TGI with A498 renal was 2.76 µM; in the assay with BT-549 breast, 6.07 µM; with DU-145 prostate, 26.6 µM; in the assay with HOP-92 NSCLC, 2.91 µM; in the assay with M14 melanoma, 0.335 µM; with MDA-MB-435, 12.9 µM. Also, the TGI with MDA-N turned out to be 16 µM; in the assay with NCI-H522 lung, 9.74 µM; in the assay with PC-3 prostate, 17.9 µM; in the assay with TK-10 renal it was 0.75 µM.
As to `O=C(c1ccccc1)n1cc(-c2ccccc2)c2c(=O)[nH]cnc21`, the total growth inhibition concentration (TGI) in the assay with A498 renal, in the assay with BT-549 breast, in the assay with DU-145 prostate, with HOP-92 NSCLC, in the assay on M14 melanoma and with MDA-MB-435 was above 100 µM each time. Besides, the TGI with MDA-N, in the assay on NCI-H522 lung, in the assay on PC-3 prostate and in the assay on TK-10 renal was above 100 µM in each case.
With `O=C(CCCCCC(=O)N1CC(CCl)c2ccc([N+](=O)[O-])cc21)N1CC(CCl)c2ccc([N+](=O)[O-])cc21` (stereo not given), the TGI in the assay with A498 renal, with BT-549 breast, with DU-145 prostate, with HOP-92 NSCLC, in the assay on M14 melanoma and in the assay on MDA-MB-435 was above 100 µM throughout. Further, the TGI in the assay on MDA-N, in the assay with NCI-H522 lung, with PC-3 prostate and in the assay on TK-10 renal was above 100 µM in each case.
Regarding `Cc1ccc(-n2cc(-c3ccc(Cl)cc3)c3c(N/N=C4\SCC(=O)N4C)ncnc32)cc1`, the TGI in the assay with A498 renal is 31.3 µM; with BT-549 breast, 82 µM; in the assay with DU-145 prostate, above 100 µM; in the assay with HOP-92 NSCLC, 8.24 µM; in the assay with M14 melanoma it was 19.5 µM; with MDA-MB-435 it was 40 µM. The TGI with MDA-N came out at 63.4 µM; in the assay on NCI-H522 lung it was 26.7 µM; with PC-3 prostate, 10.9 µM; in the assay on TK-10 renal, 8.18 µM.
Regarding `COC(=O)C1=C(OC(=O)/C=C/c2ccccc2)C(C(=O)OC)[C@@]2(O)[C@@H](C(=O)OC)[C@H](C)C[C@@H]1[C@@H]2C(=O)OC` (stereo not given in full), the TGI with A498 renal is 36.7 µM; in the assay on BT-549 breast, 56.1 µM; with DU-145 prostate, above 100 µM; with HOP-92 NSCLC, 48 µM; with M14 melanoma, above 100 µM; with MDA-MB-435 it was above 100 µM. For the same compound, the TGI with MDA-N was above 100 µM; in the assay on NCI-H522 lung, 21 µM; in the assay on PC-3 prostate it was above 100 µM; in the assay on TK-10 renal it was above 100 µM.
On to `COc1ccc(NC(=O)CC(=O)n2nc(C)c(N=Nc3cccc(C)c3)c2C)cc1`, for which the TGI in the assay on A498 renal, with BT-549 breast, with DU-145 prostate, with HOP-92 NSCLC, in the assay on M14 melanoma and with MDA-MB-435 was above 100 µM each time. Besides, the concentration for total growth inhibition (TGI) in the assay on MDA-N, with NCI-H522 lung, with PC-3 prostate and with TK-10 renal was above 100 µM in each case.
Regarding `COc1cc(O)c2c(=O)c3c(C)cccc3n(C)c2c1`, the TGI in the assay on A498 renal, in the assay on BT-549 breast, in the assay on DU-145 prostate, in the assay with HOP-92 NSCLC, with M14 melanoma and in the assay on MDA-MB-435 was above 10 µM each time. Moreover, the concentration for total growth inhibition (TGI) in the assay with MDA-N, with NCI-H522 lung, in the assay with PC-3 prostate and in the assay with TK-10 renal was above 10 µM in each case.
As for `C(=N\Nc1ccc(-c2nc3ccccc3[nH]2)cc1)/c1c(-c2ccc(Cc3ccccc3)cc2)[nH]c2ccccc12`, the TGI in the assay with A498 renal is 33.3 µM; with BT-549 breast, 38 µM; in the assay with DU-145 prostate, above 80.8 µM; with HOP-92 NSCLC, 25.7 µM; in the assay with M14 melanoma it was above 54.4 µM; in the assay on MDA-MB-435 it was above 27.4 µM. For the same compound, the TGI in the assay with MDA-N is above 24.5 µM; in the assay on NCI-H522 lung, 31.9 µM; in the assay on PC-3 prostate, 39.2 µM; in the assay with TK-10 renal it was above 95.4 µM.
On to `O=C(CCCCCCCCC(=O)N1C(=O)CC(=O)N(c2ccccc2)C1=S)N1C(=O)CC(=O)N(c2ccccc2)C1=S`, for which the total growth inhibition concentration (TGI) with A498 renal, in the assay on BT-549 breast, in the assay on DU-145 prostate, in the assay with HOP-92 NSCLC, in the assay with M14 melanoma and in the assay with MDA-MB-435 was above 100 µM in each case. The TGI in the assay on MDA-N, in the assay on NCI-H522 lung, with PC-3 prostate and with TK-10 renal was above 100 µM in each case.
Take `CCOC(=O)c1cc(I)c(-c2cc(C)no2)n1C`: the TGI with A498 renal, in the assay on BT-549 breast, in the assay on DU-145 prostate, in the assay on HOP-92 NSCLC, in the assay with M14 melanoma and in the assay on MDA-MB-435 was above 100 µM throughout. Also, the TGI with MDA-N, in the assay on NCI-H522 lung, with PC-3 prostate and in the assay on TK-10 renal was above 100 µM each time.
On to `c1ccc(CN[C@]23C4C5CC6C7C5C2C7[C@@](NCc2ccccc2)(C64)N3Cc2ccccc2)cc1` (stereo not given in full), for which the TGI with A498 renal, in the assay on BT-549 breast, with DU-145 prostate, in the assay with HOP-92 NSCLC, with M14 melanoma and in the assay with MDA-MB-435 was above 100 µM each time. Besides, the TGI in the assay with MDA-N, in the assay on NCI-H522 lung, in the assay with PC-3 prostate and with TK-10 renal was above 100 µM throughout.
For the compound `C(=Nc1ccc(-c2nc3ccccc3[nH]2)cc1)c1ccc[nH]1`, the TGI with A498 renal, in the assay with BT-549 breast, with DU-145 prostate, in the assay on HOP-92 NSCLC, with M14 melanoma and in the assay with MDA-MB-435 was above 100 µM each time. The TGI in the assay on MDA-N, with NCI-H522 lung, with PC-3 prostate and in the assay with TK-10 renal was above 100 µM in each case.
